Data published in patent publication US11253527B2, “Method and composition for inhibiting virus infection” (priority 2019, dated 2022).

Key:
[1] = system: Oral epithelial cells (OC3); assay: MTT cell viability of mock- or HSV-1-infected oral epithelial cells (OC3); assay type: cell-based
Procedure: FIG. 4 provides Experimental conditions for evaluation of the effects of Antrodia camphorata fruit body extracts on oral epithelial cells during HSV-1 infection. Three experimental conditions, including no-treatment, pre-treatment and post-treatment were performed. Oral epithelial cells (OC3) were pre-treated with media only or media containing each Antrodia camphorata extracts for 2 hours, followed by HSV-1 inoculation. Cells were infected with HSV-1 viruses at multiplicity of infection (MOI) of 5 or mock infected for 1 hour at 37° C. for viral entry to occur. Antrodia camphorata extracts were not added during viral inoculation for 1 hour to avoid of its direct effects on virions. Mock- or HSV-1-infected cells were further incubated in the absence or presence of the drug for 19 hours.
The oral epithelial cell line (OC3) was used to determine the possible effects of Antrodia camphorata extracts on oral epithelial cells during HSV-1 infection. Cell monolayers were treated as illustrated in FIG. 4 (please also see details in the Materials and Methods section). Three experimental conditions, including no-treatment, pre-treatment and post-treatment were performed. Whether these Antrodia camphorata extracts have effects before or after viral infection were examined. The effects of Antrodia camphorata extracts on viral propagation (viral yields) in infected oral epithelial cells were examined. At 19-20 h post infection, viral yields in the supernatants were determined using the plaque assay. Viability of treated cells was also determined using the MTT assay for the mitochondrial dehydrogenase activity. Moreover, purified HSV-1 virions were directly treated with Antrodia camphorata extracts to examine whether Antrodia camphorata extracts exert anti-HSV-1 activity directly on virus particles before viral entry. […]
The mitochondrial dehydrogenase activity of treated cells was evaluated using the FBS-free medium containing 1 mg/ml of 3-[4,5-dimethylthiazol-2-yl]-2,5 diphenyltetrazolium bromide (MTT). […]

HSV-1 virions = assay: Direct effect on infectivity of purified HSV-1 virions, plaque assay; assay type: cell-based, Herpes simplex virus type 1; settings: purified virions incubated directly with drug 1 hour at 37° C., dose-dependent
Procedure: Purified HSV-1 was incubated directly with media containing various concentrations of each Antrodia camphorata extracts for 1 hour at 37° C. The viral titers were then examined in oral epithelial cells (OC3) using the plaque assay. The results shown are the mean±SEM from at least three independent experiments. Statistical differences are shown by different lowercase letters (analysis of variance, Tukey, α=0.05).
The oral epithelial cell line (OC3) was used to determine the possible effects of Antrodia camphorata extracts on oral epithelial cells during HSV-1 infection. Cell monolayers were treated as illustrated in FIG. 4 (please also see details in the Materials and Methods section). Three experimental conditions, including no-treatment, pre-treatment and post-treatment were performed. Whether these Antrodia camphorata extracts have effects before or after viral infection were examined. The effects of Antrodia camphorata extracts on viral propagation (viral yields) in infected oral epithelial cells were examined. At 19-20 h post infection, viral yields in the supernatants were determined using the plaque assay. Viability of treated cells was also determined using the MTT assay for the mitochondrial dehydrogenase activity. Moreover, purified HSV-1 virions were directly treated with Antrodia camphorata extracts to examine whether Antrodia camphorata extracts exert anti-HSV-1 activity directly on virus particles before viral entry.
Oral epithelial cells (OC3 cells) were infected with HSV-1 at multiplicity of infection (MOI) of 5 or mock infected for 1 h at 37° C. for viral entry to occur. Unbound viruses were removed. Infected cells were then overlaid with appropriate media and incubated at 37° C. The Antrodia camphorata fruit body extracts used were A2 (Antrodia camphorata extracts), A3 (dehydrosulphurenic acid), A4 (antcin K), A5 (versisponic acid), and A6 (dehydroeburicoic acid). […]
Viral titers in the supernatants after infection were determined using the plaque assay. […] Plaques were observed and counted under an inverted microscope. […]

[2] = system: HuS-E/2 immortalized human primary hepatocytes cells; assay: MTT cell viability, HuS-E/2 cells; settings: 48 h, 50 μg/ml
HepG2.2.15 cells = assay: MTT cell viability, HepG2.2.15 cells; settings: 48 h, 50 μg/ml

With `C=C(CC[C@@H](C)[C@H]1CC[C@H]2C3=C(C(=O)C[C@]12C)[C@@]1(C)CCC(O)[C@](C)(O)C1CC3O)C(C)C(=O)O` (stereo partly shown) [A4, antcin K] the “viability of mock-infected cells or HSV-1 infected cells” value [1] was “not affected evidently”, the “viral infectivity of treated HSV-1 virions” value (HSV-1 virions) was “statistically significantly inhibited” and the “toxic effect (MTT cell viability)” value [2] was “no toxic effect”. The “toxic effect (MTT cell viability)” value (HepG2.2.15 cells) was “little or no toxic effect”.
